In article PMC5896373 (Molecular Pharmacology, 2018):

Columns and labels:
[1] = target: T1, chimeric P2X7/1 receptor 81–88 (Homo sapiens, UniProt Q99572, F88W/H85P/I21V/K81P/K82G/M24R/N16P/N25R/Q22R/R20V/S23N/S86Q/T19I/V84G/Y26L); assay: Two-electrode voltage clamp of ATP-evoked currents in Xenopus oocytes; type: cell-based
T1 construct: expressed in transfected cells; host or cells: Xenopus laevis oocytes (cRNA injection)
T1 sequence (Q99572 1-595 N16P/T19I/R20V/I21V/Q22R/S23N/M24R/N25R/Y26L/K81P/K82G/V84G/H85P/S86Q/F88W): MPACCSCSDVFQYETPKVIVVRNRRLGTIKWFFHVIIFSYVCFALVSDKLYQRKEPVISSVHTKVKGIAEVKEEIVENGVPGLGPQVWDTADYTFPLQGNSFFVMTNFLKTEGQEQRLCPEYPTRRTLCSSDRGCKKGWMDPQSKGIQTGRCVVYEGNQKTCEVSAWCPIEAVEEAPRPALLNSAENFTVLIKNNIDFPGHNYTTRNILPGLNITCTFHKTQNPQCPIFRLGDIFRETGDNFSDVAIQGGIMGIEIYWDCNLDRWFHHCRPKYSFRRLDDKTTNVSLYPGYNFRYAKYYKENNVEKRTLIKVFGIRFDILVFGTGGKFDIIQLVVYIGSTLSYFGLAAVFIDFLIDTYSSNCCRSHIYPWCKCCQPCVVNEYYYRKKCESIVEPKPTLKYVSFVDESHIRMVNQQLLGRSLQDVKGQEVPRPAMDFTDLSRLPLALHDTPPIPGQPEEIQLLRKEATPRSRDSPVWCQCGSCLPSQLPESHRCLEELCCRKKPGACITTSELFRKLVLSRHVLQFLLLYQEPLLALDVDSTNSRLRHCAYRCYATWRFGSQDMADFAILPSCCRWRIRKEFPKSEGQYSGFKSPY
Procedure: (§1) Additional point mutants were made using the QuikChange mutagenesis kit (Stratagene California, La Jolla, CA). The production of the correct mutations and absence of coding errors was determined by DNA sequencing (Automated ABI Sequencing Service, University of Leicester, UK). cRNA was generated for the mutants and 50 nl (50 ng) was injected into manually defoliculated stage V Xenopus laevis oocytes using an Inject+Matic microinjector (J.A. Gabay, Inject+Matic, Geneva, Switzerland). Injected oocytes were stored at 16°C in ND96 buffer [in millimolar concentrations, NaCl 96, KCl 2, CaCl2 1.8, MgCl2 1, sodium pyruvate 5, and HEPES 5 (pH 7.6) supplemented with 50 μg/ml gentamycin and 50 μg/ml tetracycline]. Three to seven days postinjection two-electrode voltage clamp recordings were made from oocytes bathed in divalent-free ND96 buffer (in millimolar concentrations, NaCl 96, KCl 2, sodium pyruvate 5, HEPES 5, and 0.1 flufenamic acid, pH 7.6). Oocytes were voltage clamped at a holding potential of −60 mV with a GeneClamp500B amplifier (Molecular Devices).
(§2) Inhibition by the antagonists was expressed as the percentage of the peak current amplitude of an EC90 concentration of ATP recorded before the application of antagonist (ATP gave reproducible responses to ATP in the absence of antagonist). Inhibition curves were fitted with the Hill equation (variable slope) using GraphPad Prism 6 (GraphPad Software, San Diego, CA). […] Individual concentration-response curves were generated for individual experiments, and statistical analysis was carried out on the data generated. […] Data are shown as mean ± S.E.M. In all cases n ≥ 3 for all data points.

[2] = target: T2, chimeric P2X7/1 receptor 210–217 (Homo sapiens, UniProt Q99572, G211E/I214K/I21V/INS213AAHM/L212V/M24R/N16P/N25R/P210E/Q22R/R20V/S23N/T19I/T217L/Y26L); assay: as above; type: cell-based
T2 construct: expressed in transfected cells; host or cells: Xenopus laevis oocytes (cRNA injection)
T2 sequence (Q99572 with tags, fused parts or gaps N16P/T19I/R20V/I21V/Q22R/S23N/M24R/N25R/Y26L/P210E/G211E/L212V/INS213AAHM/I214K/T217L): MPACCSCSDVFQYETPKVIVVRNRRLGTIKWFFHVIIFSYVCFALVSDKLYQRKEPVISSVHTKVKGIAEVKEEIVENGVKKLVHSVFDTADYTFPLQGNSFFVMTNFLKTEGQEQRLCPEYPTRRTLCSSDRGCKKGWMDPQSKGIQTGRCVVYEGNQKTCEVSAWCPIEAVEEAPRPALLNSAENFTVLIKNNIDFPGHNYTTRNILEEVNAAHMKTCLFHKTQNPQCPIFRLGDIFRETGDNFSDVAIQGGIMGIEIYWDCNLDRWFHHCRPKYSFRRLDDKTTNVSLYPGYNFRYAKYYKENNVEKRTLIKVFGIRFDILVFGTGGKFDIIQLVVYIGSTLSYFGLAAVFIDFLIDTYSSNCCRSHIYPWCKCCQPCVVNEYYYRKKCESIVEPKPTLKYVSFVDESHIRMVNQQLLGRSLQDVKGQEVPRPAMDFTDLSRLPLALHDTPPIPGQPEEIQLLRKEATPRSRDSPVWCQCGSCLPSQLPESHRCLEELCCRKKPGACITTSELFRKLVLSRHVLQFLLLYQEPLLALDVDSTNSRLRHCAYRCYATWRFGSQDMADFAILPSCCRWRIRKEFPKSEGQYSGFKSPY
Procedure: The production of the correct mutations and absence of coding errors was determined by DNA sequencing (Automated ABI Sequencing Service, University of Leicester, UK). cRNA was generated for the mutants and 50 nl (50 ng) was injected into manually defoliculated stage V Xenopus laevis oocytes using an Inject+Matic microinjector (J.A. Gabay, Inject+Matic, Geneva, Switzerland). Injected oocytes were stored at 16°C in ND96 buffer [in millimolar concentrations, NaCl 96, KCl 2, CaCl2 1.8, MgCl2 1, sodium pyruvate 5, and HEPES 5 (pH 7.6) supplemented with 50 μg/ml gentamycin and 50 μg/ml tetracycline]. Three to seven days postinjection two-electrode voltage clamp recordings were made from oocytes bathed in divalent-free ND96 buffer (in millimolar concentrations, NaCl 96, KCl 2, sodium pyruvate 5, HEPES 5, and 0.1 flufenamic acid, pH 7.6). Oocytes were voltage clamped at a holding potential of −60 mV with a GeneClamp500B amplifier (Molecular Devices).
as §2

P2X7R point mutant F103A = target: T3, P2X7R point mutant F103A (Homo sapiens, UniProt Q99572, F103A/I21V/M24R/N16P/N25R/Q22R/R20V/S23N/T19I/Y26L); assay: cell-based
T3 construct: expressed in transfected cells; host or cells: Xenopus laevis oocytes (cRNA injection)
Procedure: (§3) Injected oocytes were stored at 16°C in ND96 buffer [in millimolar concentrations, NaCl 96, KCl 2, CaCl2 1.8, MgCl2 1, sodium pyruvate 5, and HEPES 5 (pH 7.6) supplemented with 50 μg/ml gentamycin and 50 μg/ml tetracycline]. Three to seven days postinjection two-electrode voltage clamp recordings were made from oocytes bathed in divalent-free ND96 buffer (in millimolar concentrations, NaCl 96, KCl 2, sodium pyruvate 5, HEPES 5, and 0.1 flufenamic acid, pH 7.6). Oocytes were voltage clamped at a holding potential of −60 mV with a GeneClamp500B amplifier (Molecular Devices).
Inhibition by the antagonists was expressed as the percentage of the peak current amplitude of an EC90 concentration of ATP recorded before the application of antagonist (ATP gave reproducible responses to ATP in the absence of antagonist). Inhibition curves were fitted with the Hill equation (variable slope) using GraphPad Prism 6 (GraphPad Software, San Diego, CA). […] Individual concentration-response curves were generated for individual experiments, and statistical analysis was carried out on the data generated. When shown in figures, the inhibition curves are fitted to the mean normalized data. […] Data are shown as mean ± S.E.M. In all cases n ≥ 3 for all data points.

P2X7R point mutant E305A = target: T4, P2X7R point mutant E305A (Homo sapiens, UniProt Q99572, E305A/I21V/M24R/N16P/N25R/Q22R/R20V/S23N/T19I/Y26L); assay: Two-electrode voltage clamp of ATP-evoked currents in Xenopus oocytes; type: cell-based; conditions: EC90 ATP, mean ± S.E.M.
T4 construct: expressed in transfected cells; host or cells: Xenopus laevis oocytes (cRNA injection)
Procedure: as §3, §2

P2X7R point mutant T308A = target: T5, P2X7R point mutant T308A (Homo sapiens, UniProt Q99572, I21V/M24R/N16P/N25R/Q22R/R20V/S23N/T19I/T308A/Y26L); assay: as above; type: cell-based; conditions: EC90 ATP, mean ± S.E.M.
T5 construct: expressed in transfected cells; host or cells: Xenopus laevis oocytes (cRNA injection)
Procedure: as §3, §2

P2X7R point mutant F88W = target: T6, P2X7R point mutant F88W (Homo sapiens, UniProt Q99572, F88W/I21V/M24R/N16P/N25R/Q22R/R20V/S23N/T19I/Y26L); assay: as above; type: cell-based; conditions: EC90 ATP, mean ± S.E.M.
T6 construct: expressed in transfected cells; host or cells: Xenopus laevis oocytes (cRNA injection)
Procedure: as §1
(§4) Inhibition by the antagonists was expressed as the percentage of the peak current amplitude of an EC90 concentration of ATP recorded before the application of antagonist (ATP gave reproducible responses to ATP in the absence of antagonist). […]

P2X7R point mutant K297G = target: T7, P2X7R point mutant K297G (Homo sapiens, UniProt Q99572, I21V/K297G/M24R/N16P/N25R/Q22R/R20V/S23N/T19I/Y26L); assay: as above; type: cell-based; conditions: EC90 ATP, mean ± S.E.M.
T7 construct: expressed in transfected cells; host or cells: Xenopus laevis oocytes (cRNA injection)
Procedure: as §1, §4

P2X7R point mutant Y299C = target: T8, P2X7R point mutant Y299C (Homo sapiens, UniProt Q99572, I21V/M24R/N16P/N25R/Q22R/R20V/S23N/T19I/Y26L/Y299C); assay: as above; type: cell-based; conditions: EC90 ATP, mean ± S.E.M.
T8 construct: expressed in transfected cells; host or cells: Xenopus laevis oocytes (cRNA injection)
Procedure: as §1, §4

P2X7R point mutant D92A = target: T9, P2X7R point mutant D92A (Homo sapiens, UniProt Q99572, D92A/I21V/M24R/N16P/N25R/Q22R/R20V/S23N/T19I/Y26L); assay: as above; type: cell-based; conditions: EC90 ATP, mean ± S.E.M.
T9 construct: expressed in transfected cells; host or cells: Xenopus laevis oocytes (cRNA injection)
Procedure: as §3, §2

P2X7R point mutant Y93A = target: T10, P2X7R point mutant Y93A (Homo sapiens, UniProt Q99572, I21V/M24R/N16P/N25R/Q22R/R20V/S23N/T19I/Y26L/Y93A); assay: as above; type: cell-based; conditions: EC90 ATP, mean ± S.E.M.
T10 construct: expressed in transfected cells; host or cells: Xenopus laevis oocytes (cRNA injection)
T10 sequence (Q99572 whole entry N16P/T19I/R20V/I21V/Q22R/S23N/M24R/N25R/Y26L/Y93A): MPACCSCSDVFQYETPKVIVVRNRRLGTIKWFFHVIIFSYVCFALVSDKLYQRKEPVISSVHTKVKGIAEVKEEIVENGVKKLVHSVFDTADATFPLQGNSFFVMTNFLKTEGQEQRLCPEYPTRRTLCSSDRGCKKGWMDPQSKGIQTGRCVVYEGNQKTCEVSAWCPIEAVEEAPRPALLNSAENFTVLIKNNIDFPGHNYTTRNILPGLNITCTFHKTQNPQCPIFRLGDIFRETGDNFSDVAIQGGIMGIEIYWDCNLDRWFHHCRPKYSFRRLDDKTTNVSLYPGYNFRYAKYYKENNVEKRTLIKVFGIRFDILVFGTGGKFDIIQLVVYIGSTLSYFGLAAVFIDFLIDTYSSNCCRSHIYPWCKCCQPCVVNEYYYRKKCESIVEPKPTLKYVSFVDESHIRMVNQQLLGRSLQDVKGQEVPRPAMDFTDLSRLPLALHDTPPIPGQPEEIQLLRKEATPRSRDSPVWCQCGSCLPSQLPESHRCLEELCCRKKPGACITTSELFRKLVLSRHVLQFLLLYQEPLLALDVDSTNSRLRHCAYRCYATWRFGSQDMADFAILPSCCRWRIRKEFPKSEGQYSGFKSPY
Procedure: as §3, §2

T4 sequence (Q99572 whole entry N16P/T19I/R20V/I21V/Q22R/S23N/M24R/N25R/Y26L/E305A): as the sequence (Q99572 whole entry N16P/T19I/R20V/I21V/Q22R/S23N/M24R/N25R/Y26L/Y93A) above, with A93Y, E305A counted along it
T6 sequence (Q99572 whole entry N16P/T19I/R20V/I21V/Q22R/S23N/M24R/N25R/Y26L/F88W): as the sequence (Q99572 whole entry N16P/T19I/R20V/I21V/Q22R/S23N/M24R/N25R/Y26L/Y93A) above, with F88W, A93Y counted along it
T8 sequence (Q99572 whole entry N16P/T19I/R20V/I21V/Q22R/S23N/M24R/N25R/Y26L/Y299C): as the sequence (Q99572 whole entry N16P/T19I/R20V/I21V/Q22R/S23N/M24R/N25R/Y26L/Y93A) above, with A93Y, Y299C counted along it
T7 sequence (Q99572 whole entry N16P/T19I/R20V/I21V/Q22R/S23N/M24R/N25R/Y26L/K297G): as the sequence (Q99572 whole entry N16P/T19I/R20V/I21V/Q22R/S23N/M24R/N25R/Y26L/Y93A) above, with A93Y, K297G counted along it
T9 sequence (Q99572 whole entry N16P/T19I/R20V/I21V/Q22R/S23N/M24R/N25R/Y26L/D92A): as the sequence (Q99572 whole entry N16P/T19I/R20V/I21V/Q22R/S23N/M24R/N25R/Y26L/Y93A) above, with D92A, A93Y counted along it
T3 sequence (Q99572 whole entry N16P/T19I/R20V/I21V/Q22R/S23N/M24R/N25R/Y26L/F103A): as the sequence (Q99572 whole entry N16P/T19I/R20V/I21V/Q22R/S23N/M24R/N25R/Y26L/Y93A) above, with A93Y, F103A counted along it
T5 sequence (Q99572 whole entry N16P/T19I/R20V/I21V/Q22R/S23N/M24R/N25R/Y26L/T308A): as the sequence (Q99572 whole entry N16P/T19I/R20V/I21V/Q22R/S23N/M24R/N25R/Y26L/Y93A) above, with A93Y, T308A counted along it

Compound	IC50 [1] [nM]	effect on antagonist potency relative to P2X7-2Nβ ([1]; chimera 81–88)	IC50 [2] [nM]	effect on antagonist sensitivity relative to P2X7-2Nβ ([2]; chimera 210–217)	IC50 (P2X7R point mutant F103A) [nM]	IC50 (P2X7R point mutant E305A) [nM]	IC50 (P2X7R point mutant T308A) [nM]	IC50 (P2X7R point mutant F88W) [nM]	IC50 (P2X7R point mutant K297G) [nM]	IC50 (P2X7R point mutant Y299C) [nM]	IC50 (P2X7R point mutant D92A) [µM]	IC50 (P2X7R point mutant Y93A) [nM]
COc1ccc(CC(=O)NC(N=C(NC#N)Nc2cccc3ncccc23)C(C)(C)C)cc1OC (stereo not shown) [A740003, N-[1-[[(cyanoamino)(5-quinolinylamino)methylene]amino]-2,2-dimethylpropyl]-3,4-dimethoxybenzeneacetamide]	79.4	no effect	79.4	unaffected	631	25.1	100	158	12.6	100	7.94	100
Cl.Clc1cccc(-c2nnnn2Cc2cccnc2)c1Cl.O [A438079, 3-(5-(2,3-dichlorophenyl)-1H-tetrazol-1-yl)methyl pyridine hydrochloride hydrate]	1000	–	251	–	> 100000	200	1000	3160	50.1	251	> 100	3980
